From patent publication US11013730B1, “Composition comprising selenazol or thiazalone derivatives and silver and method of treatment therewith” (Thioredoxin Systems AB, priority 2014, dated 2021)
≈ marks a conversion by molar mass, not a printed value. Where “and” joins values, the source holds several entries; their conditions need not be identical. Identical values can stand only once. Like-named read-outs stand apart in the source and are kept apart here.

How the values were obtained:
HeLa cells = conditions: 24 h
Method: RAW 264.7, J774, HEK 293T, Hela cells were cultured in DMEM medium (GIBCO) supplemented with 10% FCS, 100 units/ml penicillin, and 100 μg/ml streptomycin at 37° C. in a 5% CO2 incubator. The cells were seeded in 96 micro-well plates and grown till 70-80% confluency. The cells were treated with different combination of ebselen and silver for 24 h. The cell toxicity was detected by MTT assay (15). Data are means±SD of three independent experiments.
To check whether there are synergistic toxic effects on mammalian cells, the toxicity of combination of ebselen and silver towards HeLa cells was studied. […] Nearly confluent HeLa cells were treated with combination of indicating concentration of ebselen and its analogues and silver for 24 h. then the cell toxicity was detected by MTT assay.

Helicobacter pylori = experiment: Bactericidal effects on Helicobacter pylori; assay type: cell-based; conditions: read-out: minimal bactericidal concentration (MBC)
Description: The inhibition of ebselen on H. pylori was therefore investigated. […] Taken together, our results strongly support that the inhibition of ebselen on these glutathione deficient bacteria is due to the oxidization of thioredoxin system by ebselen.

Gor DHB4 E. coli = experiment: Inhibition of bacterial growth (MIC), Gor DHB4 E. coli; conditions: Escherichia coli, DHB4E.COLI, read-out: MIC for Gor DHB4 E. coli
Description: (§1) Here E. coli DHB4 strains wt, gshA^−, gor^−, oxyR^− were used as the model to test the antibiotics activity of these ebselen derivatives.

HEK 293T cells = HEK 293T cells growth (cytotoxicity); assay type: cell-based; conditions: Homo sapiens, HEK-293T; read-out: IG50 for HEK 293T
GSH = GSH amount in bacterial cell lysates; conditions: wt E. coli, 5 μM silver and 10 μM ebselen, 1 h
Method: To analyze the TrxR activity and GSH amount in the bacteria, the cells were harvested by centrifugation and washed with PBS, then the cells were resuspended in TE buffer (50 mM Tris-HCl, pH 7.5, 1 mM EDTA) containing protease inhibitor cocktail and lysed by sonication. The cell lysates were obtained by centrifugation at 13,000 rpm for 30 min and the protein concentration were measured by Lowry protein assay (Bio-Rad DC).
To measure GSH levels, 10 μg of the cell lysates was added in the solution containing 50 nM GR, 50 mM Tris-HCl, pH 7.5, 200 μM NADPH, 1 mM EDTA, 1 mM DTNB. The absorbance at 412 nm was measured for 5 min.
GSH amounts were measured as the description in material and methods.

E. coli NHHJ = conditions: cited from earlier work
E. coli gshA^− strain = conditions: with 5 μM silver, 1 h
Method: (§2) The absorbance at 600 nm were measured to detect the growth of the bacteria.
(§3) E. coli strains were cultured until the OD600 got around to 0.4, and then the bacteria were treated with 5 μM silver and different concentrations of ebselen (2, 5, 10 μM).

Bacillus subtilis = experiment: Growth inhibition of Bacillus subtilis by ebselen and silver, A600
Method: Bacterial growth was determined as A600 after 16 h at 37° C.

E. coli TrxR [1] = target: T1, E. coli TrxR (Escherichia coli, UniProt P0A9P4); experiment: E. coli TrxR inhibition, thioredoxin dependent DTNB reduction assay; assay type: biochemical
T1 sequence (P0A9P4 whole entry): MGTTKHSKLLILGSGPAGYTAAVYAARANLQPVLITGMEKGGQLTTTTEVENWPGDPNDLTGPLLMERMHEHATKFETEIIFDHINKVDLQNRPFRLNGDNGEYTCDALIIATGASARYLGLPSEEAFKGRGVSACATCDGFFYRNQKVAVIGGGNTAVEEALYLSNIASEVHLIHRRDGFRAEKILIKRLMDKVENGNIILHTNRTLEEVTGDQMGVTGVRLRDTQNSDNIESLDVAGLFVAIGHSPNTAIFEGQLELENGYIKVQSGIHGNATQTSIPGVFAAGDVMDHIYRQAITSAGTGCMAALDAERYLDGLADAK
Method: Further we examined the effect of ebselen in the reduction of disulfide by E. coli Trx and TrxR using both DTNB and insulin as substrates.
All the benzisoselenazol-3(2H)-one and bisbenzisoselenazol-3(2H)-one derivatives were tested as potential E. coli TrxR inhibitors by standard DTNB assay. […] The reactions were started by adding 1 mM DTNB to the mixture of 100 nM TrxR, 2 μM Trx, 240 μM NADPH, and different concentration of inhibitor (1-40 μM). […] The reactions were started by adding 6 nM TrxR at room temperature. Inhibition constants (Ki) for all the compounds were measured from Dixon plot, which plots 1/v versus […], I=Inhibitor concentration).

Staphylococcus aureus = conditions: cited from earlier work
wild type DHB4 E. coli = experiment: Inhibition of bacterial growth (MIC), wild type DHB4 E. coli; conditions: Escherichia coli, DHB4E.COLI, read-out: MIC for wild type DHB4 E. coli
Description: as §1

[2] = target: E. coli ribonucleotide reductase (Escherichia coli, UniProt P00452); experiment: Inhibition of E. coli ribonucleotide reductase; assay type: biochemical; conditions: data not shown
Chain of E. coli ribonucleotide reductase (P00452 whole entry): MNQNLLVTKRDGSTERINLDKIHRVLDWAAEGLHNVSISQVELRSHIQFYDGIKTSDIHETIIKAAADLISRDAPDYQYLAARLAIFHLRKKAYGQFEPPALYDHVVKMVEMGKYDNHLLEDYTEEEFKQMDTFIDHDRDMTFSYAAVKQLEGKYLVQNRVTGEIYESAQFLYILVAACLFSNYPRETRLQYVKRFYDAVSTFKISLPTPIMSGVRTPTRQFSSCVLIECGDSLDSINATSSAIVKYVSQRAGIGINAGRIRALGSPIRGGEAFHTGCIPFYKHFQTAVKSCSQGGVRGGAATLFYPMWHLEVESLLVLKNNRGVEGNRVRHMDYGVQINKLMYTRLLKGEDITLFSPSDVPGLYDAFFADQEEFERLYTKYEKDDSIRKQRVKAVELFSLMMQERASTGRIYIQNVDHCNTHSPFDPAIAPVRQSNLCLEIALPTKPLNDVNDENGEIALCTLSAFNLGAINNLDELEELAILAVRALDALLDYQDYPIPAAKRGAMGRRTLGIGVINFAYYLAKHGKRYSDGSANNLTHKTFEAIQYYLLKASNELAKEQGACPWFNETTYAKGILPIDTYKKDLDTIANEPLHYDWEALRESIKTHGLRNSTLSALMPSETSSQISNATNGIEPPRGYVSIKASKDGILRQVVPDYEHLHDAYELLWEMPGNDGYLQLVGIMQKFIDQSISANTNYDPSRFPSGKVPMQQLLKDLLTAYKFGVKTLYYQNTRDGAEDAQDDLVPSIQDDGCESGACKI

Mammalian TrxR = target: T2, Mammalian TrxR (Homo sapiens, UniProt Q16881); conditions: from ref (3) / (32); cited from earlier work
T2 sequence (Q16881 151-649 limits assumed): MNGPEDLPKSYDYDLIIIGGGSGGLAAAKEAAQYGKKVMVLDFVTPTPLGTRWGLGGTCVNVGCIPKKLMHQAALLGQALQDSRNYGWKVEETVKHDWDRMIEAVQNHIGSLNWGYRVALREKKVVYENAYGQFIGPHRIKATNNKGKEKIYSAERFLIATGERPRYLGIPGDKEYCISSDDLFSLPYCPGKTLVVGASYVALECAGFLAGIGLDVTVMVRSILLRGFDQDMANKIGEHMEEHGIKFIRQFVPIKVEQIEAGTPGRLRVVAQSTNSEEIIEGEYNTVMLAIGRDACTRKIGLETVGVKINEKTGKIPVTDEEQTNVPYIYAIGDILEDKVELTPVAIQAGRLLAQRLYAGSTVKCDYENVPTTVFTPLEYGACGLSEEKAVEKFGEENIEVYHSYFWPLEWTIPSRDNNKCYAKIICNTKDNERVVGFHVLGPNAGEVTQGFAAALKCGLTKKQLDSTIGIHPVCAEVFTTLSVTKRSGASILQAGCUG

[3] = test system: Mycobacterium tuberculosis; experiment: Sensitivity of Mycobacterium tuberculosis to ebselen, radiometric BACTEC 460 system; assay type: cell-based; conditions: medium with 5 g/l albumin, estimate
E. coli TrxR [4] = target: T1, E. coli TrxR; experiment: E. coli TrxR inhibition, thioredoxin dependent DTNB reduction assay; assay type: biochemical; conditions: Lineweaver-Burk plots, reduction of DTNB; listed as ebselen; read-out: Ki (dissociation constant of inhibitor-TrxR complex), competitive inhibition of E. coli TrxR
recombinant rat TrxR = target: T3, recombinant rat TrxR (Rattus norvegicus, UniProt O89049); experiment: Inhibition of mammalian (recombinant rat) TrxR
T3 sequence (O89049 1-499): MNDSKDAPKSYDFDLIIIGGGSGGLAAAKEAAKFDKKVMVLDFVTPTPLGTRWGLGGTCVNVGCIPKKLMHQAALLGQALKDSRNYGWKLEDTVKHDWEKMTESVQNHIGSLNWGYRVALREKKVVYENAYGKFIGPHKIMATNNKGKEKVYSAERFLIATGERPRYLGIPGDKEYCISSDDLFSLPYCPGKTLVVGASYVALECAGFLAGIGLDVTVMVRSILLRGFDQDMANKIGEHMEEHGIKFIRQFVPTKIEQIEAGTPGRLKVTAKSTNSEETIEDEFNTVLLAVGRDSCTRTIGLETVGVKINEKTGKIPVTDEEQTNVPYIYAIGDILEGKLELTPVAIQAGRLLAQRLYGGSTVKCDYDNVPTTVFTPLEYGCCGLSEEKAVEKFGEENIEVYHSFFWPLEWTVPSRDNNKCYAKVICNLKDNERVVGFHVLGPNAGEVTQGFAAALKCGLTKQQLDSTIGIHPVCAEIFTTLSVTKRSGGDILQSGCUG

E. coli = assay type: cell-based, Escherichia coli; conditions: 2, 4, 8 μM, LB medium, 16 h
[5] = Glutathione peroxidase (GPx) activity of the compounds; assay type: biochemical; conditions: relative; EbSe 6 = 1
H. pylori strains = experiment: MIC against H. pylori strains; conditions: Helicobacter pylori
E. coli TrxR [6] = target: T1, E. coli TrxR; experiment: TrxR activity in bacterial cell lysates, insulin coupled reduction endpoint assay; assay type: cell-based; conditions: 5 μM silver and 2, 5, 10 μM ebselen, 1 h
Method: The reaction continued for 30 min. […] A sample without E. coli Trx was used as the background control.

wild type (wt) E. coli = experiment: Growth of wild type E. coli culture treated 1 h with silver and ebselen; conditions: with 5 μM silver
Method: as §2, §3

gshA^− DHB4 E. coli = experiment: Inhibition of bacterial growth (MIC), gshA^− DHB4 E. coli
Description: as §1

E. coli Trx-(SH)2 = E. coli Trx-(SH)2 (Escherichia coli, UniProt P0AA25); conditions: fluorescence spectroscopy, ref (32); cited from earlier work
Chain of E. coli Trx-(SH)2 (P0AA25 whole entry): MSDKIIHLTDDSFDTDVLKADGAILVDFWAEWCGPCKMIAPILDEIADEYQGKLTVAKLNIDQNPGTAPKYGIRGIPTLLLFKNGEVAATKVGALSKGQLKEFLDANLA

What does the source list for O=c1c2ccccc2[se]n1-c1ccccc1 [EbSe 6, 2-phenyl-1,2-benzisoselenazol-3(2H)-one]?
synergistic toxicity with silver (HeLa cells; 5 μM): did not show synergistic of toxicity; synergistic toxicity with silver (HeLa cells; 20 μM, silver at high concentration): enhanced the toxicity of silver; MBC (Helicobacter pylori; macrolide resistant strains): 12.5 µg/mL (≈ 45.6 µM); MBC (Helicobacter pylori; two macrolide sensitive strains): 3.12 µg/mL (≈ 11.4 µM); MIC (Gor DHB4 E. coli): 15 µM (≈ 4.11 µg/mL); IC50 (HEK 293T cells): 120000 nM; GSH amount in cell lysate (GSH): obviously lower than the others; concentration required to inhibit growth (E. coli NHHJ): up to 50 μg per ml; ebselen concentration that inhibited growth (E. coli gshA^− strain): 2 µM; effect on growth of B. subtilis (Bacillus subtilis; ebselen at 2 μM alone): did not inhibit the growth; effect on antibacterial activity of silver (Bacillus subtilis; ebselen at 2 μM with silver): strongly helped the antibacterial activity of silver; inhibition of E. coli TrxR (in words) (E. coli TrxR [1]): strongly inhibited; IC50 (E. coli TrxR [1]; DTNB assay, 100 nM TrxR, 2 μM Trx, 240 μM NADPH, 1 mM DTNB, read-out: IC50 for E. coli TrxR): 6000 nM; Ki (E. coli TrxR [1]; Dixon plot, 6 nM TrxR, Trx 1, 2 or 4 μM, read-out: Ki for E. coli TrxR): 300 nM; concentration inhibiting growth (Staphylococcus aureus; Staphylococcus aureus 209P): 0.20 µg/mL; MIC for 90% of S. aureus strains (Staphylococcus aureus): 1.56 μg per ml; mode of action on S. aureus (Staphylococcus aureus): bacteriocidal; sensitivity of Staphyloccus aureus relative to E. coli (Staphylococcus aureus): 100 fold; concentration inhibiting growth (Staphylococcus aureus; methicillin resistant Staphylococcus aureus): 0.20 μg per ml; MIC (wild type DHB4 E. coli): 40 µM (≈ 11 µg/mL); inhibition of E. coli ribonucleotide reductase [2]: effective direct inhibitor; Km (Mammalian TrxR): 2.5 µM; kcat, mammalian TrxR (Mammalian TrxR): 9.8 s⁻¹; MIC [3]: < 20 µg/mL; Ki (E. coli TrxR [4]): 150 nM and 140 nM; IC50 (recombinant rat TrxR): > 10000 nM; inhibition of mammalian TrxR (in words) (recombinant rat TrxR): no inhibitory activity; effect of ebselen alone on bacterial growth (E. coli): did not show the inhibition effects; Relative GPx activity [5]: 1; MIC (H. pylori strains): 3.13 µg/mL (≈ 11.4 µM); MIC (H. pylori strains; NCTC11637): 3.13 µg/mL (≈ 11.4 µM); TrxR activity in bacterial lysates (E. coli TrxR [6]): not affected; ebselen concentration that inhibited growth (wild type (wt) E. coli): 10 µM; sensitivity of gshA^− / gor^− strains compared with wild type (gshA^− DHB4 E. coli; E. coli strains wt, gshA^−, gor^−): Wild type bacteria were more resistant than gor^− and gshA^− strains; MIC (gshA^− DHB4 E. coli; Escherichia coli, read-out: MIC for gshA^− DHB4 E. coli): 26 µM (≈ 7.13 µg/mL); second-order rate constant of direct reduction by reduced E. coli Trx (E. coli Trx-(SH)2): 2e+07 M⁻¹ s⁻¹
